Results reported in patent US20150018380A1, “Methods of Screening for Activation Deaminase Inhibitors Through Nuclear Import Inhibitors” (University of Rochester, priority 2012, published 2015).
Entries after “also recorded” stand apart in the source; their conditions may differ. Read-outs that look alike come from different tables or passages of the source.

What was measured:
AID-EGFP [1] = experiment: LMB / Ratjadone A response of AID-EGFP in stable HeLa AID-EGFP cells; format: cell-based, human; conditions: for AID-EGFP localization / nuclear retention: 100 ng/ml for 180 min
Description: HCS assay development involves the selection of the most appropriate cellular model (Dudgeon et al., 2010, J. Biomol. Screen, 15: 766-782; Nickischer et al., 2006, Methods Enzymol, 414: 389-418; Williams et al., 2006, Methods Enzymol, 414: 364-89). In this regard, AID shuttling is not specific to B cells, making it possible to use a variety of cell types to study AID structure and function (Okazaki et al., 2002, Nature, 416: 340-5; Yoshikawa et al., 2002 Science, 296: 2033-6). However, the ability of LMB to induce quantitative AID nuclear retention was more uniform in HeLa cells (a finding has been independently confirmed by comparing the AID responses to LMB in transiently transfected HeLa, HEK293T, U2OS, A549, CaCo2, HepG2 and CHO cells). […] Consequently, AID-EGFP was subcloned from a pIRES vector into the lentiviral vector pLVTHM (Addgene) using the EF1-α promoter to drive moderate to low level expression. pLV-AID-EGFP psuedotyped virus was transduced into HeLa S3 cells (ATCC) that were live-cell flow sorted to obtain a homogenous population of fluorescent cells. Subcloning of a cell line was not thought to be necessary given the ability to threshold fluorescence in individual cells during high content screening. These cells have been maintained in culture with little or no loss of fluorescence for 2 months. HeLa AID-EGFP cells plated into 384-well plates at varying cell densities (1,250 to 10,000 cells per well) were simultaneously fixed with formaldehyde and counter stained with Hoechst and then imaged using both the IXU Ultra and ArrayScan VTI platforms with 10× and 20× objectives. Image quantification was performed with the multi-wavelength cell scoring (MWCS) & translocation enhanced (TE) image analysis modules and the molecular translocation (MT) image algorithm for the IXU Ultra and ArrayScan VTI, respectively. Based on image acquisition, 2,500 cells per well was determined ideal for either platform regardless of the objective. […] To establish the LMB response within the context of an HCS system and assess the assay parameters, cells were treated in 384-well format with varying doses (0.2 to 200 ng/ml) of either LMB or Ratjadone A (chemically related to LMB) for varying durations up to 200 min. […] There was a 4.5-fold difference between the nuclear to cytoplasmic (N/C) fluorescence ratio of LMB-treated cells and cells only treated with the solvent for LMB (0.5% methanol).
For the LOPAC high content screen (HCS), 2,500 AID-EGFP-HeLa cells were cultured per well on a 384-well plate. Cells were seeded and cultured overnight. Cells were exposed to 20 μM of test compound for 3 hours, followed by a 200 ng/mL LMB treatment for 3 hours. Experiments were run in duplicate. […]

AID-EGFP [2] = experiment: LMB response in HEK293T cells transiently co-transfected with AID-EGFP and mCherry-H1: AID; format: cell-based, human
Method: (§1) HEK293T cells in 40 μl were plated robotically into 384-well plates using a Multi-Drop (ThermoScientific) such that in 24 hours the cell density is approximately 60% confluency. EGFP-AID and mCherry-H1 plasmids were mixed at a 1:1 molar ratio in Turbofect reagent as per the manufacture's protocol (Fermentas) and dispensed from a trough into the 384-well HEK293T cell cultures with a Perkin Elmer Janus robot liquid handling system. Each well received 25 ng of total plasmid DNA and uniform dispersal of the transfection mixture was ensured by placing the plates on the Perkin Elmer plate mixer at the highest speed setting for 30 sec. Due to the small culture volume, there was no effect on cell attachment to the plates but was critical for uniform transfection. Ranges of both EGFP-AID: mCherry-H1 plasmid ratios and amount of total plasmid DNA required for transfection of cells in 384-well format were evaluated. For current plasmid stocks, a 1:1 plasmid ratio gave the most consistent expression of both proteins.
(§2) Co-expression of other counter screen proteins and their response to LMB was evaluated using co-transfected HEK293T cells. […]

histone H1 = experiment: LMB response in HEK293T cells transiently co-transfected with AID-EGFP and mCherry-H1: H1; format: cell-based, human; conditions: LMB treatment
Method: as §1, §2

ACF = experiment: LMB response in HEK293T cells transiently cotransfected with ACF-EGFP and mCherry-hnRNPA1: ACF; format: cell-based, human; conditions: LMB treatment; transiently transfected HEK293T
Description: (§3) Wild type human ACF, hnRNP A1, and TALDO1 cDNAs are obtained from BlueHeron (NM_014576.2, NM_002136.2 and NM_006755.1) cDNAs for ACF and A1 were subcloned into pGEM3 and pIRES, respectively. Criteria used for transient transfection, validating protein expression and determining appropriate N/C ratio baselines are described elsewhere herein. Two counter screens for shuttling proteins, run in parallel enable the identification of AID-selective nuclear import inhibitors.
(§4) Data presented herein show images from HEK293T cells 24 hr after being transiently cotransfected with ACF-EGFP and mCherry-hnRNPA1. FIG. 5G through FIG. 5I show images from a 384-well plate for EGFP-ACF, mCherry-hnRNPA1 and two color composite respectively. […] ACF and hnRNP A1 are selected because they shuttle using different mechanism than AID and because their function in the cell differs markedly from one another and from AID and H1. ACF binds to RNA through RNP domains that comprise three separate and centrally located RNA Recognition Motifs (RRM), required for ACF's function as an editing site recognition cofactor for APOBEC1 mRNA editing activity in the cell nucleus (Hintersteiner et al., 2010, ACS Chem Biol, 5(10): 967-79). […] ACF nuclear import is determined by a unique amino acid motif centrally located and a Cterminal, CRM1-dependent nuclear export signal (Chahine et al., 2009, Pharmacol Rev, 61(3): 358-72).

hnRNP A1 = experiment: LMB response in HEK293T cells transiently cotransfected with ACF-EGFP and mCherry-hnRNPA1: hnRNP A1; format: cell-based, human; conditions: LMB treatment; transiently transfected HEK293T
Description: as §3, §4

AID-EGFP [3] = experiment: LMB response in 293T cells transiently co-transfected with AID-EGFP and mCherry-TALDO1: AID; format: cell-based, human; conditions: LMB treatment; 293T co-transfected with mCherry-TALDO1
Method: (§5) TALDO1 in pIRES was transiently co-transfected with AID-EGFP in 293T cells and fluorescence images taken 24 hours post-transfection. AID-EGFP was predominantly cytoplasmic while mCherry-TALDO1 was predominantly nuclear (FIG. 5P through FIG. 5R). […] It is concluded that co-expression of AID and TALDO1 is achievable and that the proteins have different N/C ratios even though they use the same importins.

TALDO1 = experiment: LMB response in 293T cells transiently co-transfected with AID-EGFP and mCherry-TALDO1: TALDO1; format: cell-based, human; conditions: LMB treatment; 293T co-transfected with AID-EGFP
Method: as §5

AID-EGFP [4] = experiment: LMB response in HeLa cell line stably expressing AID-EGFP and mCherry-TALDO1: AID; format: cell-based, human; conditions: LMB treatment; stable HeLa AID-EGFP/mCherry-TALDO1
Description: (§6) A HeLa cell line stably expressing equivalent levels of AID-EGFP and mCherry-TALDO1 was established by transducing cells with a lentiviral vector encoding AID-EGFP. mCherry-TALDO1 was transfected/selected after the AID-EGFP line was sorted and selected. The cell line was then sorted for the co-expression of both proteins.
(§7) FIG. 23 depicts the expression of AID-EGFP and mCherry-TALDO1, as measured by flow cytometry (FIG. 23A) and western blot (FIG. 23B). […] FIG. 24 depicts the localization of AID-EGFP and mCherry-TALDO1 in control treated cells and LMB treated cells. […] This cell line is then used in a simultaneous primary/counter screen for compounds that selectively alter AID import, while not affecting TALDO1 localization.

mCherry-TALDO1 = experiment: LMB response in HeLa cell line stably expressing AID-EGFP and mCherry-TALDO1: TALDO1; format: cell-based, human; conditions: LMB treatment; stable HeLa AID-EGFP/mCherry-TALDO1
Description: as §6, §7

CRM1 = CRM1 (Homo sapiens, UniProt O14980); conditions: cited from earlier work
AID = target: T1, AID (Homo sapiens, UniProt Q9GZX7); experiment: AID-EGFP-HeLa HCS assay LOPAC screen for inhibitors of AID nuclear import; format: cell-based
T1 construct: expressed in transfected cells; host or cells: HeLa S3 (lentiviral transduction, pLVTHM, EF1-alpha promoter)
Method: The LOPAC screen was performed using 20 μM of each compound in duplicate with a 3-hour incubation followed by LMB treatment.
Maximum values, set to 100% corresponds to conditions of DMSO treated cells. Minimum values, set approximately to 0%, corresponds to conditions of only 200 ng/mL LMB treatment.

glucocorticoid receptor = conditions: prior screen, cited from earlier work
[5] = 20 μM compound for 3 hours, then 200 ng/mL LMB for 3 hours, AID-EGFP-HeLa cells, 2,500 cells/well, duplicate

T1 sequence (Q9GZX7 whole entry): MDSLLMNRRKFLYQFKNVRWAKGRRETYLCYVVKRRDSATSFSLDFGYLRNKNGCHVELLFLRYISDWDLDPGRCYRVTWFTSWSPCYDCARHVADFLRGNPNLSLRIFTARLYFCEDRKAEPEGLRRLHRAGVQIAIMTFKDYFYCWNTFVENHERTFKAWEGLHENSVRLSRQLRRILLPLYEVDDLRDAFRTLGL
Sequence of CRM1 (O14980 whole entry): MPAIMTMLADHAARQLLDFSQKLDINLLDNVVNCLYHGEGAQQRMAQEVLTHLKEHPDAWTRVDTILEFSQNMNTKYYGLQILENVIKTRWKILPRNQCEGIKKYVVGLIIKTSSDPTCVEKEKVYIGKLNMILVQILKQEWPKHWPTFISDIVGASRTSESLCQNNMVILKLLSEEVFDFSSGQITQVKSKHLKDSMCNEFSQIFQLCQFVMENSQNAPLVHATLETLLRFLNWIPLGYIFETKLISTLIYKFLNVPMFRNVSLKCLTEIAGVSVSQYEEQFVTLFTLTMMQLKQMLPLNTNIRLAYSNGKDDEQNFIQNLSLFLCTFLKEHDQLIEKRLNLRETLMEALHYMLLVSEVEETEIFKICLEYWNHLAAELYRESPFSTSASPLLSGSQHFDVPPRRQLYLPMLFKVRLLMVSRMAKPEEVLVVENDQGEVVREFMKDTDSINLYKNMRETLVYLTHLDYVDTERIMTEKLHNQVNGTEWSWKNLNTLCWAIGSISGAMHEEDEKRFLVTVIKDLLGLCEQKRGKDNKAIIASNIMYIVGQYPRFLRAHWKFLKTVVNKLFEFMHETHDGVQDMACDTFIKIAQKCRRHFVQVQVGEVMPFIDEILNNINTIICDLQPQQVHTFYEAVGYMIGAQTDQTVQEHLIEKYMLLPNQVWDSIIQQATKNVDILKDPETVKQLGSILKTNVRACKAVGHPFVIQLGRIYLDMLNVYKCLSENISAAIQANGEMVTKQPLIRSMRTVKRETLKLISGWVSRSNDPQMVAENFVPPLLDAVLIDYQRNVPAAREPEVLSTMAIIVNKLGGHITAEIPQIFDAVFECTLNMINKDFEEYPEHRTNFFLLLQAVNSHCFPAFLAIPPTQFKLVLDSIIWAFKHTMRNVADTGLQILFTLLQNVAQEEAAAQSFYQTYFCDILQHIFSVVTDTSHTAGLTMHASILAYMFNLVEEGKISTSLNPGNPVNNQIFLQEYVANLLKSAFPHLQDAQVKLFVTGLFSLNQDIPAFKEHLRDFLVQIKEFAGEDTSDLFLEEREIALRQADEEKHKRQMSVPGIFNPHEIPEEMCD

Ratjadone A
AID-EGFP localization / nuclear retention (AID-EGFP [1]; HeLa AID-EGFP cells): maximal nuclear retention of AID-EGFP; also recorded: nuclear AID-EGFP localization

CCC(=C/[C@H](C)C/C=C/C(C)=C/[C@@H](C)C(=O)[C@@H](C)[C@H](O)[C@@H](C)C/C(C)=C/C(=O)O)/C=C/[C@@H]1OC(=O)C=C[C@@H]1C [LMB, Leptomycin B]
AID-EGFP localization / nuclear retention (AID-EGFP [1]; HeLa AID-EGFP cells): maximal nuclear retention of AID-EGFP; also recorded: nuclear AID-EGFP localization
nuclear localization of AID-EGFP (AID-EGFP [1]; 200 ng/mL LMB for 3 hours, control AID-EGFP-HeLa cells without test compound): approximately 80%
difference in nuclear to cytoplasmic (N/C) fluorescence ratio versus solvent (0.5% methanol) treated cells (AID-EGFP [1]; HeLa AID-EGFP cells, 384-well): 4.5 fold
AID-EGFP nuclear retention (AID-EGFP [2]; 50 ng/ml LMB for 90 min, transiently transfected HEK293T): increased retention in their nuclei; also recorded: selective redistribution of AID-EGFP
effect of increasing LMB above 50 ng/ml on EGFP-AID retained in the nucleus (AID-EGFP [2]; transient system, HEK293T): did not increase the amount of EGFP-AID retained in the nucleus
histone H1 localization (histone H1): remained nuclear; also recorded: do not affect H1 nuclear localization
ACF localization (ACF): nuclear retention of ACF; also recorded: redistribution of ACF-EGFP
hnRNP A1 localization (hnRNP A1): does not respond
AID-EGFP nuclear retention (AID-EGFP [3]): significant nuclear retention of AID-EGFP; also recorded: selective redistribution of AID-EGFP
nuclear mCherry fluorescence due to TALDO1 (TALDO1): did not noticeably affect
AID-EGFP localization (AID-EGFP [4]): shift localization from primarily cytoplasmic to primarily nuclear
mCherry-TALDO1 localization (mCherry-TALDO1): remained nuclear
CRM1-mediated nuclear export of AID (CRM1): inhibited

CC(C)(C)c1ccc(S(=O)(=O)/C=C/C#N)cc1 [Bay 11-7085]
inhibition of AID nuclear import (AID; [5]): greater than 50%
nuclear import of the glucocorticoid receptor (glucocorticoid receptor): inhibit the nuclear import of the glucocorticoid receptor
nuclear import of the glucocorticoid receptor (glucocorticoid receptor; listed as SID 53777289): inhibited nuclear import of the glucocorticoid receptor

CN(C)S(=O)(=O)c1ccc2c(c1)/C(=C/c1cc3c([nH]1)CCCC3)C(=O)N2 [SU 6656]
inhibition at 20 µM (AID; [5]): > 50%

Cc1c2ccncc2c(C)c2c1[nH]c1ccccc12 [Ellipticine]
inhibition at 20 µM (AID; [5]): > 50%

O=C1c2c(O)ccc(O)c2C(=O)c2c(NCCNCCO)ccc(NCCNCCO)c21 [Mitoxantrone]
inhibition at 20 µM (AID; [5]): > 50%

Cl.Cl.O=C1c2c(O)ccc(O)c2C(=O)c2c(NCCNCCO)ccc(NCCNCCO)c21 [M6545]
fluorescence interference (false positive hit) (AID; LOPAC screen, 20 μM): false positive autofluorescent
